Measured values reported in patent US20240158386A1, “BENZOXAZOLONE INHIBITORS OF INFLAMMASOMES” (ICAHN SCHOOL OF MEDICINE AT MOUNT SINAI, priority 2021, published 2024).
Read-outs that look alike come from different tables or passages of the source.

How the values were obtained:
NLRC4 inflammasome = target: T1, NLRC4 inflammasome (Mus musculus, UniProt Q3UP24); assay: NLRC4 inflammasome activation assay: IL-1β release, microglia from NLRP3 KO mice, LPS and flagellin; type: cell-based; conditions: FIG. 3A
T1 construct: endogenous in cells; host or cells: primary microglia from NLRP3 KO mice
Experimental: AIM2, NLRP7, and NLRC4 inflammasomes activation assays. […] AIM2 inflammasome activation was induced through the addition of 100 ng/ml LPS for 2 hours, followed by transfection of 1 μg poly(dA:dT) using Lipofectamine 2000 during 2 hours, following the manufacturer recommendations. NLRC4 was activated by treatment with 150 ng/ml LPS for 2 hours, before transfection of 1 μg flagellin during 2 hours, using lipofectamine 2000 as transfection reagent. Negative and positive controls were pre-treated with the same DMSO percentage as cells treated with the inhibitors. Negative controls were kept untreated after DMSO addition, while LPS-poly(dA:dT) or LPS-flagellin was added to positive controls for AIM2, and NLRC4 activation, respectively. For activation of the NLRP7 inflammasome different conditions were assessed: treatment of WT microglia cultures with 400 ng/ml fibroblast-stimulating lipopeptide-1 (fsl-1) for 7 hours, priming with 150 ng/ml LPS for 1 hour and treatment with 400 ng/ml fsl-1 for 7 hours, and priming with 150 ng/ml LPS and transfection of 400 ng/ml fsl-1 with lipofectamine. MCC950 was used as a negative control for NLRC4 and AIM-2 inhibition. Cells were pretreated with 5 μM MCC950 before LPS addition, and 2 hours later the NLRC4 and AIM-2 activation was induced through addition of their specific activators. Cell supernatants were collected for IL-1β measurement.
(§1) Cytokine quantification. IL-1β in cell supernatants and brain tissue samples—after the different treatment groups—was quantified using the Mouse IL-1 beta/IL-1F2 DuoSet ELISA kit (R&D systems), IL-6 in cell culture supernatant was measured through the Mouse IL-6 ELISA kit (ThermoFisher), TNF-α in cell culture supernatants was determined using the Mouse TNF-alpha DuoSet ELISA (R*D systems), and IL-18 in brain tissue was measured through the IL-18 Mouse ELISA Kit (Invitrogen) following the manufacturers' recommended protocol. IL-1β precursor and cleaved IL-1β in the FC of mice treated with vehicles, LPS, or C77-LPS was assessed by western blot. All samples were run in technical duplicates.

NLRP3 inflammasome = target: T2, NLRP3 inflammasome (Mus musculus, UniProt Q8R4B8); assay: NLRP3 inflammasome activation assay: IL-1β release by primary microglia after LPS and ATP; type: cell-based, murine
T2 construct: endogenous in cells; host or cells: primary microglia from cortices of 2-3 day old WT mouse pups
Experimental: Murine primary microglia. Mixed cortical cultures were prepared as previously described (Bronstein, R. et al. J. Vis. Exp. JoVE 50647 (2013) doi:10.3791/50647). Briefly, cortices from 2-3 days old, WT, or NLRP3 KO pups were isolated, digested, and seeded at a density of 8 cortices per 10 ml petri dish. Every three days, the medium was replaced by fresh culture medium (DMEM, 10% FBS, 1% penicillin-streptomycin). After three weeks, mixed glial cultures had reached confluence, and microglia cells were isolated by mild trypsinization as previously described (Saura, J. et al. Glia 44, 183-189 (2003)). In brief, cells were washed with culture medium without FBS and treated with a mixture of trypsin 0.25% (without EDTA) and DMEM-F12 medium in a 1:3 proportion. After an incubation period of approximately 40 min, an intact layer of mixed glial cells detached, leaving microglia attached firmly to the bottom of the Petri-dish. Pure microglia were then isolated by 15 min incubation with trypsin (0.05%)-EDTA at 37° C., followed by gentle shaking. Cells were counted and seeded at the desired density, typically 7.5·10^4 cells/well in 24 well-plates.
(§2) NLRP3 inflammasome activation assay. Primary microglia cultures were incubated with the compounds that inhibited IL-1β production in THP1 macrophages. Cells pretreated with 100 μM of the compounds—or with the same DMSO volume, in the case of control samples—were primed with 400 ng/ml LPS for 3 hours, and activated with 4.5 mM ATP for 45 minutes or […] nigericin for 1 hour. Dose-response curves were conducted by incubating microglia cultures with different concentrations of the selected compounds, ranging from 0.001 to 100 μM, 1 hour before NLRP3 activation with LPS and ATP. Supernatants were collected for IL-1β and toxicity assessments.
as §1

NLRP3 = assay: In-vivo assessment of C77: brain cytokines in LPS-treated mice; design: species or system WT C57BL/6J mice
Experimental: as §1
Animals used in in-vivo assessments. WT C57BL/6J mice (stock #000664) were obtained from The Jackson Laboratory. Mice were housed in groups of five animals per cage on a 12:12 hours light/dark cycle. Water and food were provided ad libitum. 8-10 weeks males were used for experiments. All procedures were approved by the Institutional Animal Care and use Committee of the Icahn School of Medicine at Mount Sinai.
In-vivo assessment of C77. The ability of C77 to inhibit NLRP3 in-vivo was evaluated using WT C57BL/6J mice. C77 (50 mg/kg), or the same volume of DMSO vehicle, was intraperitoneally injected 2 hours before of LPS (15 mg/kg) or vehicle (PBS) administration. 1.5 hours later, the animals were sacrificed and their brain was isolated. Cortex, frontal cortex, hippocampus, and cerebellum regions from the right hemisphere were obtained for IL-1β analysis. The left hemisphere was used for gene expression analysis. N=5 animals per group.

microglia cultures = assay: Cell viability assay (CytoTox 96 cytotoxicity); type: cell-based, murine
Experimental: as §2
Cell viability assays. The cytotoxic effect of the compounds identified by in-vitro screening was assayed with the Cyto Tox 96® NonRadioactive Cytotoxicity Assay (Promega), following the recommendations of the manufacturer.

IL6 production = assay: IL-6 production in cell culture supernatant (ELISA); type: cell-based, mouse; conditions: FIG. 3B
Experimental: as §1

[1] = 50 mg/kg IP 2 hours before 15 mg/kg LPS IP

T2 sequence (Q8R4B8 whole entry): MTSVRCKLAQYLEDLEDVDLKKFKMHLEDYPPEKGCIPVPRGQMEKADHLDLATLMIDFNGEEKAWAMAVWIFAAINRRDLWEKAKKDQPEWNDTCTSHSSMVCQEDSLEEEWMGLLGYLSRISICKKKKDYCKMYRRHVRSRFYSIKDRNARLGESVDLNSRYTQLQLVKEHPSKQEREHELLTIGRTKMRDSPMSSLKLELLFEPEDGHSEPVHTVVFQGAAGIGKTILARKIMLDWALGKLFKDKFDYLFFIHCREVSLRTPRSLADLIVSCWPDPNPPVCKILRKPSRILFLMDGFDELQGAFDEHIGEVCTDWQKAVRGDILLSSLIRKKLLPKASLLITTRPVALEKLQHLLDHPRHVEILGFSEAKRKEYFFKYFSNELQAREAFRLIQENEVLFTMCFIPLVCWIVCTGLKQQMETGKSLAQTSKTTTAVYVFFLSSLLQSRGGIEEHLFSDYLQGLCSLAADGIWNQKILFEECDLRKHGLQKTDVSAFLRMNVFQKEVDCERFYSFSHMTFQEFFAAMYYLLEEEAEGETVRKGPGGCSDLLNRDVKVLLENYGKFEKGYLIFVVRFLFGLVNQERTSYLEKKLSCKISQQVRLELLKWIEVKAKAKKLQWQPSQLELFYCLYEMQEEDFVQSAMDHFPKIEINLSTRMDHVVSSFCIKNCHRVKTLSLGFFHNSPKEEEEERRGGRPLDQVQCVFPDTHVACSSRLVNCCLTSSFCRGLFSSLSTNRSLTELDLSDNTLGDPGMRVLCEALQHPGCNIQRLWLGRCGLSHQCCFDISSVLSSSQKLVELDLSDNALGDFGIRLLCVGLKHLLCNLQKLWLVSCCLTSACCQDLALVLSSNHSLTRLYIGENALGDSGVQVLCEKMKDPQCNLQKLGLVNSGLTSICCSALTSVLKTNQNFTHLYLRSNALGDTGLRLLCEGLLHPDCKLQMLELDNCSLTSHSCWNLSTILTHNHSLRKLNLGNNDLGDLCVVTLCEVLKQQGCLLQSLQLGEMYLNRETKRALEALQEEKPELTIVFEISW
T1 sequence (Q3UP24 whole entry): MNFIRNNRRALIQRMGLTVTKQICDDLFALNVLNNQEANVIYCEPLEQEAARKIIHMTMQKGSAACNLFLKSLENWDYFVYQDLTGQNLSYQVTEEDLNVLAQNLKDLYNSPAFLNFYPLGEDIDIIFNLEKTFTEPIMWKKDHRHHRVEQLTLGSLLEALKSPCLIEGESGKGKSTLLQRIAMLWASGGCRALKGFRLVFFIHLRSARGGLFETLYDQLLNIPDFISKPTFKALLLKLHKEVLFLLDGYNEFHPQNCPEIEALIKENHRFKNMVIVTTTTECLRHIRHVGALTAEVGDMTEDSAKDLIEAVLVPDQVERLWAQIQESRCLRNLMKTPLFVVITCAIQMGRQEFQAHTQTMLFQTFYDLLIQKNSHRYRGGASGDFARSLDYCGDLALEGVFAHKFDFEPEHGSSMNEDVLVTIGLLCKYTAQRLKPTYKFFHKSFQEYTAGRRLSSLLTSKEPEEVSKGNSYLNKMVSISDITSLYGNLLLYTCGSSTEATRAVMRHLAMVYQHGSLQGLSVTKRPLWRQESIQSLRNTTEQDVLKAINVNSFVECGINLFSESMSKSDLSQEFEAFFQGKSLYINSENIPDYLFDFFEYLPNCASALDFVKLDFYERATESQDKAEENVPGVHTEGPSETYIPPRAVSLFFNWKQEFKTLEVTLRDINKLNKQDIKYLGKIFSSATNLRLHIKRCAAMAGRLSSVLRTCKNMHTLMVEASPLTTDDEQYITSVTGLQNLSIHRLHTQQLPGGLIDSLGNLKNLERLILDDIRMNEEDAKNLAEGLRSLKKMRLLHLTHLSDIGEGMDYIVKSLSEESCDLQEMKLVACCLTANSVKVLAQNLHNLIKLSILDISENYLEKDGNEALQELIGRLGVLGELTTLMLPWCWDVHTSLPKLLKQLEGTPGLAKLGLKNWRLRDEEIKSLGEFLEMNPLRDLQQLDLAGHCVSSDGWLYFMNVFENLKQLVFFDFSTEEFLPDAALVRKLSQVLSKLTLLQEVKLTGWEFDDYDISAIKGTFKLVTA

Structure (SMILES): O=C(Cn1c(=O)oc2ccccc21)NCc1cncc(-c2ccsc2)c1 [Compound C77]
- IC50 (NLRC4 inflammasome): 4.15 ± 1.65 µM
- inhibition of IL-1β release upon NLRP3 activation (NLRP3 inflammasome; 100 μM compound, microglia, LPS and ATP): inhibited NLRP3 with statistical significance
- concentrations exerting inhibitory effects on NLRP3-mediated IL-1β (NLRP3 inflammasome; FIG. 2C, microglia, LPS and ATP): ≥ 100 nM
- IC50 (NLRP3 inflammasome; FIG. 3A, read-out: NLRP3 IC50): 3.54 ± 1.3 µM
- [Cx] to reach 100% of inhibition (NLRP3 inflammasome; IL-1β release, microglia, LPS and ATP): lower than 25 μM
- IC50 (NLRP3 inflammasome; IL-1β release, microglia, LPS and ATP, nonlinear fit of dose-response, read-out: IC50): 4.1 ± 2.1 µM
- IL-1β levels in the cerebellum (NLRP3; [1]): significantly reduced IL-1β levels
- IL-1β levels in the frontal cortex (NLRP3; [1]): significantly reduced IL-1β levels
- IL-1β levels in the hippocampus (NLRP3; [1]): significantly reduced IL-1β levels
- IL-18 levels in the frontal cortex (NLRP3; [1]): significantly reduced IL-18 levels
- cleaved IL-1β versus pro IL-1β by western blot (NLRP3; frontal cortex of mice treated with C77-LPS): reduces the cleaved form of IL-β and not pro IL-1β
- toxicity on microglia cultures (microglia cultures; 50 μM): significantly reduced the viability of the culture
- toxicity on microglia cultures (microglia cultures; concentrations lower than 50 μM): did not show significant toxicity levels
- inhibition of IL6 production (IL6 production): did not inhibit
